Test results as given in patent publication US20250312349A1, “COMPOSITION AND METHODS OF TREATING INTRACELLULAR PATHOGEN INFECTION” (UNIVERSITY HOSPITALS CLEVELAND MEDICAL CENTER, priority 2024, published 2025).

How the values were obtained:
ME49 T. gondii [1] = assay: Suboptimal dose combination in mice with ocular and cerebral toxoplasmosis; assay type: in vivo, C57BL/6 mice; conditions: 2.5 mg/Kg once a day, 14 days
Procedure: C57BL/6 mice that had been infected with tissue cysts of ME49 T. gondii for 4 weeks (at a time when animals have developed ocular and cerebral toxoplasmosis), were treated with suboptimal dose of Saracatinib (2.5 mg/Kg once a day) with or without suboptimal dose of Pyrimethamine (4.2 mg/Kg once a day) for 14 days.

Lek and Fyn in T cells = conditions: cited from earlier work
[2] = test system: phospho-S473 Akt and PTEN around tachyzoites; assay: Immunofluorescence of brain sections from infected mice treated for four days; assay type: in vivo, C57BL/6 mice; conditions: 10 mg kg^-1 twice daily for 4 days
Description: Scale bar, 50 m. […] Scale bar, 50 m. […] (G). […] Results are representative of 2 independent experiments. […] Scale bar, 10 m.
C57BL/6 mice (Jackson Laboratories, Bar Harbor, ME) or Becn 1^+/− (C57BL/6 background; gift from Beth Levine, University of Texas Southwestern, Dallas, TX) were bred at the Animal Resource Center at Case Western Reserve University. Female mice between the ages of 6 to 8 weeks old were infected with 10 cysts of the ME49 T. gondii for four weeks. In certain experiments, mice were euthanized at 4 weeks to evaluate severity of ocular and cerebral toxoplasmosis.

[3] = Brain penetration and tolerability of Saracatinib; assay type: in vivo; conditions: mice, 10 or 15 mg kg^-1 twice per day
T. gondii [4] = assay: In-out assay of parasite invasion of host cells (SAG1 staining); assay type: cell-based, Toxoplasma gondii; conditions: CHO cells, 1 μM, RH-RFP T. gondii, 2 hours
Procedure: (A) CHO cells were treated with Saracatinib (1 μM) and infected with RH-RFP T. gondii for 2 hours. Cells were fixed with Paraformaldehyde (PFA) and were not permeabilized prior to staining with a tachyzoite marker, SAG1. […] will express red fluorescence while extracellular parasites stain for SAG1 and appear green or yellow in color. Data are shown as mean±SEM. The graphs show data from 7 independent monolayers pooled from 2 different experiments. (B) CHO cells were treated with Saracatinib (1 μM) and infected with RH-RFP T. gondii for 24 hours. Number of tachyzoites per vacuole were determined by light microscopy and quantified as percentage of total vacuoles. Data are shown as mean±SEM. The graphs show data from 6 independent monolayers pooled from 3 different experiments. […] (PDF)
Mammalian cells were infected with RFP-T. gondii (RH) and fixed with 4% paraformaldehyde. Cells were stained with antibodies against LC3 (MBL International, Woburn, MA), LAMP1 (DSHB, Iowa City, IA), or GRA7 (gift from John Boothroyd, Stanford University, Stanford, CA) followed by a fluorescently conjugated secondary antibodies (Jackson ImmunoResearch Laboratories, West Grove, PA). LC3 and LAMP1 were evaluated for accumulation at 5- and 7 hours post-infection, respectively. […] Parasites were evaluated blindly in multiple random fields of view and 100 parasites were examined per group. […]

phospho-S473 Akt = assay: Confocal microscopy of phospho-S473 Akt accumulation around parasites in CHO cells; assay type: cell-based, Chinese Hamster; conditions: RFP-T. gondii
Procedure: Mammalian cells were infected with RFP-T. gondii (RH) and fixed with 4% paraformaldehyde. Cells were stained with antibodies against LC3 (MBL International, Woburn, MA), LAMP1 (DSHB, Iowa City, IA), or GRA7 (gift from John Boothroyd, Stanford University, Stanford, CA) followed by a fluorescently conjugated secondary antibodies (Jackson ImmunoResearch Laboratories, West Grove, PA). LC3 and LAMP1 were evaluated for accumulation at 5- and 7 hours post-infection, respectively. Cells were stained with antibodies against PTEN (Santa Cruz Biotechnology, Dallas, TX) or anti-phospho S473 Akt (Novus, Centennial, CO). Frozen brain sections were stained with antibodies against PTEN (Novus, Centennial, CO), phospho S473 Akt, SAG-1 (Invitrogen, Waltham, MA) or T. gondii (Biogenex, Fremont, CA). Parasites were evaluated blindly in multiple random fields of view and 100 parasites were examined per group. In-out assays were performed as described using RFP-T gondii, anti-SAG-1 antibody (Invitrogen, Waltham, MA) and an Alexa Fluor 488-conjugated secondary antibody. Olympus FV1200 confocal microscope (Evident/Olympus, Waltham, MA) equipped with UPlanSApa 60× and 100× 1.45NA objectives was used to evaluate the slides.

ME49 T. gondii [5] = assay: Pre-established ocular and cerebral toxoplasmosis in B6 mice, 4 weeks of treatment; assay type: in vivo, C57BL/6 mice; conditions: four weeks
Description: Brains and eyes were fixed in 10% formalin before paraffin embedding. Hematoxylin & eosin (H&E) and periodic acid Schiff hematoxylin (P.A.S.H) were used to stain sections from eyes and brains respectively. Brain and ocular histopathology were scored as described previously.

T. gondii [6] = assay: In vitro infection of mammalian cells with T. gondii tachyzoites, counted by light microscopy; assay type: cell-based, Toxoplasma gondii
Procedure: Chinese Hamster Ovary (CHO; a gift from Cathleen Carlin, Case Western Reserve University), human retinal pigment epithelial (RPE) cells (ARPE-19; American Type Culture Collection, ATCC, Manassas, VA), and mouse endothelial […]) transduced with Src shRNA or control encoding lentiviral vectors were cultured in complete media. Mouse brain endothelial cells expressing WT or DN EGFR were isolated as described. Endothelial cells were cultured in medium containing Endothelial Cell Growth Supplement (ECGS; Sigma-Aldrich, St Louis, MO). Mammalian cells were infected with tachyzoites of the RH or PTG stains of T. gondii; RH strain was used unless otherwise indicated. Cells were fixed at 2 hours or 24 hours followed by staining using Hema 3 Manual Staining System (Fisherbrand, Hampton, NH). At least 100 to 200 cells per monolayer were counted by examining a minimum of 5 random areas per monolayer. The percentage of infected cells, tachyzoites and vacuoles per 100 cells, and tachyzoites per vacuole were counted using light microscopy. Three independent experiments were performed. Saracatinib, Gefitinib (LC Laboratories, Woburn, MA) and lysosomal inhibitors leupeptin and pepstatin (10 μM; Millipore Sigma, Burlington, MA) were used in specified experiments. Each cell monolayer was generated and infected independently.

[7] = in vivo; cited from earlier work
PTEN = assay: Immunoblot of PTEN phosphorylation in T. gondii-infected CHO cells; assay type: cell-based, Chinese Hamster; conditions: lysates at 2 h
Procedure: Membranes were probed with antibodies against Src, phospho-Y416 Src, Akt, phospho-S473 Akt, PTEN, phospho-[…] PTEN, PI3K, phospho-Y458/Y199 PI3K, ULK1, EGFR, HA tag (all from Cell Signaling, Danvers, MA), phospho-Y240 PTEN (Sigma) and Actin (Santa Cruz Biotechnologies) followed by incubation with secondary antibodies (Cell Signaling and Santa Cruz Biotechnologies). Three independent experiments were performed.

ME49 T. gondii [8] = assay: Ocular and cerebral toxoplasmosis in Dexamethasone-treated mice; assay type: in vivo, C57BL/6 mice; conditions: 10 mg kg-1 twice per day, 2 weeks, vs vehicle
[9] = 10 or 15 mg kg^-1 oral gavage twice per day
[10] = CHO cells transfected with CA Akt, 1 μM, 24 h
[11] = CHO cells transfected with WT Akt, 1 μM, 24 h
[12] = EGFR+ CHO cells, RH T. gondii, indicated concentrations, 24 h

SMILES: CN1CCN(CCOc2cc(OC3CCOCC3)c3c(Nc4c(Cl)ccc5c4OCO5)ncnc3c2)CC1 [Saracatinib, N-(5-chloro-1,3-benzodioxol-4-yl)-7-(2-(4-methylpiperazin-1-yl)ethoxy)-5-(tetrahydro-2H-pyran-4-yloxy)quinazolin-4-amine]
- load of tissue cysts (ME49 T. gondii [1]): neither the low dose Saracatinib nor the low dose Pyrimethamine decreased
- activity of Lek and Fyn in T cells (Lek and Fyn in T cells): did not inhibit
- T cell expansion and IFN-γ production following antigenic stimulation (Lek and Fyn in T cells; low doses, previously primed T cells, in vitro and in vivo): increased T cell expansion and IFN-γ production
- phospho-S473 Akt accumulation around tachyzoites [2]: markedly reduced
- recruitment of PTEN around tachyzoites [2]: induced recruitment
- predicted brain concentrations [3]: ~0.2 µM
- parasite invasion of host cells (T. gondii [4]): did not affect
- accumulation of phospho-S473 Akt around intracellular parasites (phospho-S473 Akt): inhibited
- mice with no significant ocular inflammation (ME49 T. gondii [5]; 15 mg kg^-1 twice per day): 75%
- perivascular and diffuse inflammation in the brains (ME49 T. gondii [5]; 15 mg kg^-1 twice per day): No significant perivascular and diffuse inflammation were detected
- histopathology in eye and brain (ME49 T. gondii [5]; [9]): marked reduction
- parasite load in the eye and brain (ME49 T. gondii [5]; [9]): profound reduction
- toxoplasmacidal activity (T. gondii [6]; 0.3 μM): significantly reduced
- toxoplasmacidal activity (T. gondii [6]; 1 μM, infected host cells): kills T. gondii
- toxoplasmacidal activity (T. gondii [6]; CHO cells infected with type I (RH) or Type II (PTG) strains, 1 μM, 2 h and 24 h): toxoplasmacidal activity
- effects on infected cells and tachyzoites per 100 cells compared with Gefitinib (T. gondii [6]; CHO cells stably transfected to express EGFR, 24 h): more striking than the effects of Gefitinib
- number of tachyzoites per 100 cells (T. gondii [6]; [10]): no reduction
- percentage of infection (T. gondii [6]; [10]): no reduction
- number of tachyzoites per 100 cells (T. gondii [6]; [11]): reduced
- percentage of infected cells (T. gondii [6]; [11]): reduced
- parasite replication (tachyzoites per vacuole) (T. gondii [6]; CHO cells, 1 μM, 24 hours): did not affect
- killing of T. gondii in cells made deficient in PTEN (T. gondii [6]; CHO cells, PTEN siRNA, 24 h): no longer able to kill T. gondii
- percentage of infected cells (T. gondii [6]; [12]): dose-dependent significant decrease
- tachyzoites per 100 cells (T. gondii [6]; [12]): dose-dependent significant decrease
- anti-T. gondii activity in ULK1-deficient cells (T. gondii [6]; ULK1 siRNA, CHO and brain endothelial cells, 24 h): unable to exhibit anti-T. gondii activity
- anti-T. gondii activity in presence of Leupeptin and Pepstatin A (T. gondii [6]; lysosomal inhibitors 10 μM added post-infection): ablated
- toxoplasmacidal activity in cells made deficient in Src (T. gondii [6]; mHEVc cells transduced with Src shRNA, 1 μM): no toxoplasmacidal activity was detected
- blood-brain barrier penetration [7]: penetrates the blood-brain barrier
- tolerability [7]: well-tolerated
- PTEN phosphorylation at Tyr240, Ser380 and Thr382/383 (PTEN): reduced
- histopathology in the eye and brain (ME49 T. gondii [8]): significantly reduced
- parasite load in the eye and brain (ME49 T. gondii [8]): significantly reduced
